Consider two molecules from patent US20230404976A1, “PHARMACEUTICAL COMBINATION CONTAINING CAPSID PROTEIN INHIBITOR AND NUCLEOSIDE ANALOG” (priority 2020, published 2023).

This test has as its system HBV DNA in mouse serum (rAAV8-1.3HBV, type D, ayw). In words: AAV/HBV mouse model: qPCR quantification of HBV DNA in mouse serum. The format is in vivo, C57BL/6 mice. The following applies: for HBV DNA (log10, copy/μL) time (days) post-dose: 3: day 3; for HBV DNA (log10, copy/μL) time (days) post-dose: 3 / HBV DNA (log10, copy/μL) time (days) post-dose: 7 / HBV DNA (log10, copy/μL) time (days) post-dose: 14 / HBV DNA (log10, copy/μL) time (days) post-dose: 21 / HBV DNA (log10, copy/μL) time (days) post-dose: 28: i.g. days 0-27; for HBV DNA (log10, copy/μL) time (days) post-dose: 7: day 7; for HBV DNA (log10, copy/μL) time (days) post-dose: 14: day 14; for HBV DNA (log10, copy/μL) time (days) post-dose: 21: day 21; for HBV DNA (log10, copy/μL) time (days) post-dose: −1: day −1 (before first dose). As for the experimental part: Male C57BL/6 mice, 5 weeks old, free of specific pathogens, purchased from Shanghai Slac Laboratory Animal Co., Ltd., housed in independent ventilated cages. The mice were acclimatized for 3 days and then injected with the AAV/HBV virus.
rAAV8-1.3HBV (type D, ayw) was purchased from FivePlus, Beijing. It was diluted with sterile PBS to 5×10^11 v.g./mL before experiment. Each mouse was injected with 200 μL, i.e., 1×10^11 v.g.
AAV/HBV injection: rAAV8-1.3HBV was prepared into a 1×10^11 v.g./200 μL solution with sterile PBS in advance before injection. Mice were injected with 200 μL of the rAAV8-1.3HBV solution via the tail vein.
Grouping: On day 27 post virus injection, according to the serum HBV DNA, HBeAg and HBsAg results on days 14 and 21, the mice were randomized into groups of 8 or 4 and correspondingly treated according to the experimental design.
Group number: • i. Solvent group; • ii. Monotherapy group: entecavir; • iii. Monotherapy group: the compound of formula I 3 mpk; • iv. Combination group (combo): the compound of formula I 3 mpk and entecavir; • v. Monotherapy group: the compound of formula I 10 mpk; • vi. Combination group (combo): the compound of formula I 10 mpk and entecavir.
Compound treatment: On day 28 post infection, all mice were intragastrically administered a solvent or compound. The day of the first administration was counted as day 0 of experiment, and the duration of administration was from day 0 to day 27. Entecavir was administered once daily (QD) and the compound of formula I was administered twice daily (BID, 8 hr/16 hr apart). The administration volume was 10 mL/kg.
Non-endpoint blood collection: On day −1, 3, 7, 14, 21, 28, 35 or 42, about 120 μL of blood was collected from the submandibular vein, and serum was collected and assayed for HBV DNA. If blood collection and administration were on the same day, blood collection was performed about 5 hours after the first administration on that day.
Endpoints of experiment: mice in groups i-iv were euthanized on day 28. Blood was collected from the hearts of the mice, and serum was collected and assayed for HBV DNA. The endpoints of experiment for groups v and vi were on day 42.
qPCR Quantification of HBV DNA in mouse serum: The DNA was extracted from serum, and the experiment was performed by following the instructions for QIAamp 96 DNA Blood Kit. qPCR conditions: 95 ° C., 10 min, 1 cycle; 95° C., 15 s; 60° C., 1 min; 40 cycles.
Data were expressed as mean ±standard error, and statistical analysis was performed using Student t test.

The mark [1] stands for this setting: entecavir 0.001 mg/kg QD, compound of formula I 3 mg/kg BID, mean ± standard error, LLOQ 2.08.
[2] abbreviates: day 28 (endpoint), entecavir 0.001 mg/kg QD, compound of formula I 3 mg/kg BID, mean ± standard error, LLOQ 2.08.
The mark [3] stands for this setting: Table 4 groups: entecavir 0.001 mg/kg QD, compound of formula I 3 mg/kg BID, i.g., mean ± standard error.
The mark [4] stands for this setting: compound of formula I 10 mg/kg BID, entecavir 0.001 mg/kg QD, values below LLOQ expressed as 2.08.

Consider `C=C1[C@H](CO)[C@@H](O)C[C@@H]1n1cnc2c(=O)[nH]c(N)nc21` [Entecavir, 2-amino-9-[(1S,3R,4S)-4-hydroxy-3-hydroxymethyl-2-methylenecyclopentyl]-1,9-dihydro-6H-purin-6-one, reference compound], for which, under setting [1], the “HBV DNA (log10, copy/μL) time (days) post-dose: 3” value is given as 3.11 ± 0.10 log10, copy/μL; the “HBV DNA (log10, copy/μL) time (days) post-dose: 7” value is reported as 2.69 ± 0.11 log10, copy/μL; the “HBV DNA (log10, copy/μL) time (days) post-dose: 14” value (shortened to “HBV DNA (log10, copy/μL) time … 14”) is reported as 2.75 ± 0.13 log10, copy/μL; the “HBV DNA (log10, copy/μL) time (days) post-dose: 21” value (“HBV DNA (log10, copy/μL) time … 21” below) is 2.79 ± 0.12 log10, copy/μL. The “HBV DNA (log10, copy/μL) time (days) post-dose: 28” value (from here on “HBV DNA (log10, copy/μL) time … 28”) under setting [2] was 2.70 ± 0.17 log10, copy/μL. Also, the “HBV DNA (log10, copy/μL) time (days) post-dose: −1” value (shortened to “HBV DNA (log10, copy/μL) time … −1”) under setting [3] is given as 4.19 ± 0.12 log10, copy/μL.
For the molecule `C[C@]1(NC(=O)C(=O)c2c(Cl)c(C(=O)Nc3cc(F)c(F)c(F)c3)c3n2CCC3)CC[C@H](CC(=O)O)CC1` [Compound of formula I, 2-((1r,4r)-4-(2-(6-chloro-7((3,4,5-trifluorophenyl)carbamoyl)-2,3-dihydro-1H-pyrrolin-5-yl)-2-oxalylamino)-4-methylcyclohexyl)acetic acid], under setting [1], the “HBV DNA (log10, copy/μL) time (days) post-dose: 3” value is 3.71 ± 0.10 log10, copy/μL; the “HBV DNA (log10, copy/μL) time (days) post-dose: 7” value was 3.63 ± 0.09 log10, copy/μL; the “HBV DNA (log10, copy/μL) time … 14” value is listed as 3.71 ± 0.06 log10, copy/μL; the “HBV DNA (log10, copy/μL) time … 21” value is recorded as 3.61 ± 0.11 log10, copy/μL. Moreover, under setting [4], the “HBV DNA (log10, copy/μL) time … 14” value is reported as 2.10 ± 0.02 log10, copy/μL and the “HBV DNA (log10, copy/μL) time … 21” value was 2.08 ± 0.00 log10, copy/μL. Moreover, the “HBV DNA (log10, copy/μL) time … 28” value under setting [2] is 3.96 ± 0.11 log10, copy/μL. Also, under “day 28, compound of formula I 10 mg/kg BID, entecavir 0.001 mg/kg QD, values below LLOQ expressed as 2.08”, the “HBV DNA (log10, copy/μL) time … 28” value was 2.12 ± 0.04 log10, copy/μL. Also, the “HBV DNA (log10, copy/μL) time (days) post-dose: 31” value (day 31 (after end of dosing on day 27), compound of formula I 10 mg/kg BID, entecavir 0.001 mg/kg QD, i.g., LLOQ 2.08) was 3.56 ± 0.12 log10, copy/μL. For the setting “day 35 (after end of dosing on day 27), compound of formula I 10 mg/kg BID, entecavir 0.001 mg/kg QD, i.g., LLOQ 2.08”, the “HBV DNA (log10, copy/μL) time (days) post-dose: 35” value was 4.38 ± 0.09 log10, copy/μL. Moreover, the “HBV DNA (log10, copy/μL) time (days) post-dose: 42” value (day 42 (endpoint, after end of dosing on day 27), compound of formula I 10 mg/kg BID, entecavir 0.001 mg/kg QD, i.g., LLOQ 2.08) is 4.64 ± 0.08 log10, copy/μL. Further, under setting [3], the “HBV DNA (log10, copy/μL) time … −1” value is 4.46 ± 0.07 log10, copy/μL. The “HBV DNA (log10, copy/μL) time … −1” value (Table 5 groups: compound of formula I 10 mg/kg BID, entecavir 0.001 mg/kg QD, i.g., mean ± standard error) is listed as 4.45 ± 0.07 log10, copy/μL.
